From US7507864B2, “Method for the synthesis of curcumin analogues” (Salisbury University, priority 2006, dated 2009) come the findings set out here.

The series can be described thus: Solubility in organic solvents. As to conditions: for solubility in acetone: solvent acetone; for solubility in ethanol: solvent ethanol; for solubility in ethyl acetate: solvent ethyl acetate; for solubility in isobutyl acetate: solvent isobutyl acetate. The format is physicochemical. The text has this:
Curcumin is a bright red product once purified and maintains the vanilla fragrance due to the presence of methoxy groups from the starting product vanillin. It is soluble in acetone, ethyl acetate, ethanol, and isobutyl acetate. The solubility of bisdemethoxycurcumin, however, is slightly different. It is very soluble in ethanol and isobutyl acetate but acetone and ethyl acetate solubility is limited. Bisdemethoxycurcumin maintains a pumpkin-orange appearance and is more crystalline in nature than curcumin.

Take `COc1cc(/C=C/C(=O)CC(=O)/C=C/c2ccc(O)c(OC)c2)ccc1O` [Curcumin, 1,7-bis(4-hydroxy-3-methoxyphenyl)-1,6-heptadiene-3,5-dione]: the solubility in acetone entry was “soluble”, the solubility in ethanol result was “soluble”, the “solubility in ethyl acetate” value is recorded as “soluble” and the “solubility in isobutyl acetate” value is “soluble”.

As for `O=C(/C=C(O)/C=C/c1ccc(O)cc1)/C=C/c1ccc(O)cc1` [bisdemethoxycurcumin, 1,7-bis-(4-hydroxyphenyl)-1,6-heptadiene-3,5-dione], the solubility in acetone entry is “limited”, the solubility in ethanol entry is “very soluble”, the “solubility in ethyl acetate” value is on record as “limited” and the “solubility in isobutyl acetate” value is given as “very soluble”.
